According to US6803044B1, “Antimicrobial and anti-inflammatory peptides for use in human immunodeficiency virus” (priority 1999, dated 2004):
Ends that are not written are not given here.

How the values were obtained:
[1] = centrally administered, rabbit; cited from earlier work
[2] = test system: C. albicans (clinical isolate); assay: Melanocortin peptides on C. albicans viability (colony forming units); format: cell-based; details: for reduction of C. albicans CFU at higher concentrations: up to 10^−4M; for C. albicans colony forming units (CFU): two hours at 37° C.
Protocol: S. aureus (ATCC 29213) and C. albicans (clinical isolate) were obtained from the collection of the Department of Microbiology, Ospedale Maggiore di Milano. C. albicans were maintained on Sabouraud'[…] periodically transferred to Sabouraud's agar plates and incubated for 48 hours at 28° C. To prepare stationary growth phase yeast, a colony was taken from the agar plate and transferred into 30 ml Sabouraud-dextrose broth and incubated for 72 hours at 32° C. Cells were centrifuged at 100×g for 10 minutes and the pellet was washed twice with distilled water. Cells were counted and suspended in Hank's balanced salt solution (“HBSS”) to the desired concentration. Viability, determined by the exclusion of 0.01% methylene blue, remained >98%. […] Cells were then washed in cold distilled water and diluted with HBSS to a concentration of 100 organisms/ml. One ml aliquots were dispensed on blood agar plates and incubated for 48 hours at 37° C. Organism viability was estimated from the number of colonies formed. In subsequent experiments using similar procedures we compared activity of α-MSH (4-10), (6-13), (11-13), ACTH (1-39), (18-39), and fluconazole, the latter an established […]. […] There were at least six replicates for each concentration of peptide. […] The reaction was stopped after three minutes by the addition of ice cold ethanol. cAMP was measured in duplicate using a commercial enzyme immunoassay (EIA) kit (Amersham, United Kingdom) after extraction via the liquid-phase method according to manufacturer's instructions.

[3] = test system: chronically HIV-1 infected promonocytic U1 cell line; assay: reverse transcriptase (RT) release by stimulated U1 cells (ELISA); format: cell-based; details: U1 cells induced by IL-6, IL-10, PMA, and in crowding condition; KPV 10^−5 M
Protocol: (§1) Before use, cells were washed three times with HBSS (Gibco) to remove extracellular virus. […] In crowding experiments, U1 cells were seeded at the density of 2×10^5 mL and maintained in culture at 37° C. in 5% CO2 without change of medium for 7 days. […] In all experiments each condition was tested in triplicate.
(§2) p24 antigen release (Cellular Products Inc. Buffalo, N.Y., USA) and reverse transcriptase (ELISA Retrosys RT assay, Innovagen, Lund, Sweden) were determined using commercial ELISA kits.

[4] = test system: chronically HIV-1 infected promonocytic U1 cell line; assay: p24 antigen release by stimulated U1 cells (ELISA); format: cell-based; details: for most effective concentration for HIV inhibition (p24 release): tested 10^−13 to 10^−4 M
Protocol: as §1, §2

[5] = test system: C. albicans killing by human neutrophils; assay: C. albicans killing by human neutrophils; format: cell-based; details: two hours at 37° C.
Protocol: Venous blood (20 ml) from healthy volunteers was anticoagulated with heparin. Neutrophils were isolated using dextran sedimentation and Ficoll-Hypaque (Sigma Chemical Co., St. Louis, Mo., USA) centrifugation. Erythrocytes were lysed via hypotonic shock. Neutrophils represented at least 97% of the cell suspension. Cell viability, estimated by trypan blue exclusion, was >98%. Neutrophils were suspended to final concentration in HBSS. […] After incubation, the culture tubes were placed on ice to stop growth and extracellular organisms were washed twice with centrifugation at 100×g at 4° C. A 2.5% sodium desoxycholate solution was added to the suspension and the tubes were shaken for five minutes. Cold distilled water was added to obtain a suspension of 10^6 cells/ml. Two 1/100 serial dilution in HBSS were made to obtain a final suspension of 100 cells/ml. Aliquots of 1 ml were dispensed on blood agar plates and incubated for 48 hours at 37° C. Colony forming units (“CFU”) were counted at the end of the incubation period. Experiments were run in triplicate and repeated using blood from five different donors.

[6] = test system: C. albicans; assay: α-MSH peptides on C. albicans germination (horse serum-induced); format: cell-based; details: horse serum-induced germ tube formation; peptide 10^−4M; 60 minutes
Protocol: C. albicans from stationary phase cultures were washed twice with distilled water and suspended in HBSS to a final concentration of 2×10^6/ml. Hyphal growth was induced by addition of 10% inactivated horse serum (GMCO/BRL, Paisley, Great Britain) to yeast incubated for 45 minutes at 37° C. with continuous shaking. […] The percentage of filamentous cells was evaluated under a light microscope with the aid of a hartocytometer. Experiments were run in triplicate and at least 200 cells were scored. Photomicrographs were taken with a MC100 […] attached to an Axioskop Zeiss microscope.

[7] = test system: S. aureus; assay: Urokinase-induced growth enhancement of S. aureus; format: cell-based; details: peptide 10^−6M; urokinase 500 U; four hours
Source text: In experiments on S. aureus, we determined the influence of α-MSH on urokinase-induced growth-enhancement. Hart, D. A.; Loule, T.; Krulikl, W.; Reno, C., Staphylococcus Aureus Strains Differ in Their in Vitro Responsiveness to Human Urokinase: Evidence that Methicillin-Resistant Strains are Predominantly Nonresponsive to the Growth-Enhancing Effects of Urokinase, Can. J. Microbiol. 42, 1024-31 […]. […] Appropriate dilutions of S. aureus were dispensed on agar plates and colonies counted after 24 hours incubation at 37° C.

[8] = test system: HIV-1Ba-L strain in human MDM; assay: RT release in acutely infected monocyte derived macrophages (MDM); format: cell-based; details: KPV 10^−5 M daily, more pronounced on day 6, still significant on day 21
Protocol: as §2
Human peripheral blood mononuclear cells (PBMCs) were isolated from normal donors by Ficoll-Hypaque density gradient centrifugation. Monocytes were isolated by Percoll gradient separation and allowed to differentiate into macrophages (MDM) in complete medium RPMI plus 20% FCS in 24-well tissue culture plates at 10^6 cells/mL for 7-days. MDM were infected with monocytotropic HIV-1Ba-L strain (1:10) overnight. The undiluted viral stock contained 10^7 infectious Units/mL. After 24 h, MDM were washed and resuspended in complete medium, replaced 3 times/week, for 3 weeks. RT activity was measured weekly post-infection.

[9] = test system: C. albicans; assay: cAMP accumulation in C. albicans (EIA); format: cell-based; details: 10^−6M; three minutes
Protocol: The reaction was stopped after three minutes by the addition of ice cold ethanol. cAMP was measured in duplicate using a commercial enzyme immunoassay (EIA) kit (Amersham, United Kingdom) after extraction via the liquid-phase method according to manufacturer's instructions.

[10] = test system: HIV-1 RNA in PMA-stimulated U1 cells; assay: Northern blot for HIV-1 RNA in U1 cells; format: cell-based; details: PMA (1 ng/mL)-stimulated U1 cells; KPV 10^−5 M; 24 h
Source text: Total RNA was extracted by the guanidine thiocyapate phenol method using an RNA isolation kit (Tripure, Boehringer Mannheim, Indianapolis, Ind.), following the manufacturer's instructions. Ten μg of total RNA were separated by 0.8% agarose/formaldehyde gel electrophoresis and transferred onto nylon membrane. The filters were baked and hybridized for 18 hr with α^32 P-labeled HIV-full length probe (kind gift of L. Turchetto and E. Vicenzi, S. Raffaele Hospital, Milan, Italy). The radiolabelling reaction was performed using a DNA labelling kit (Ready-to-go, Pharmacia Biotech, San Francisco, Calif.). Filters were washed and exposed to X-ray film for 5 days. The labeled probe was removed by washing at 80° C. in 0.1×SSC containing 0.1% sodium dodecyl sulphate and then rehybridized witb α^32 P-labeled glyceraldehyde-3-phosphate dehydrogenase (GAPDH) cDNA probe. Densitometric analysis was performed using ImageMaster™ VDS 3.0 software (Pharmacia Biotech) and results were expressed as density units.

[11] = test system: S. aureus (ATCC 29213); assay: Melanocortin peptides on S. aureus viability (colony formation); format: cell-based; details: two hours at 37° C.
Protocol: S. aureus (ATCC 29213) and C. albicans (clinical isolate) were obtained from the collection of the Department of Microbiology, Ospedale Maggiore di Milano. C. albicans were maintained on Sabouraud'[…] periodically transferred to Sabouraud's agar plates and incubated for 48 hours at 28° C. To prepare stationary growth phase yeast, a colony was taken from the agar plate and transferred into 30 ml Sabouraud-dextrose broth and incubated for 72 hours at 32° C. Cells were centrifuged at 100×g for 10 minutes and the pellet was washed twice with distilled water. Cells were counted and suspended in Hank's balanced salt solution (“HBSS”) to the desired concentration. Viability, determined by the exclusion of 0.01% methylene blue, remained >98%. […] Cells were then washed in cold distilled water and diluted with HBSS to a concentration of 100 organisms/ml. One ml aliquots were dispensed on blood agar plates and incubated for 24 hours at 37° C. Organism viability was estimated from the number of colonies formed.

[12] = test system: NF-κB; assay: Electrophoretic mobility shift assay of NF-κB DNA-binding activity in U1 cells; format: cell-based; details: 10^−5 M peptide
Source text: The mixtures were run on a 5% (30:1) acrylamide gel in 1× Tris-Borate-EDTA (TBE). Gels were dried and exposed to film for autoradiography (3 days).

[13] = in vivo; cited from earlier work
[14] = 10^−4M melanocortin peptides (FIG. 11 legend: 10^−6M)

For “10-13 sequence: α-MSH (11-13) with glycine added to form the 10-13 sequence (GKPV; ends and bridges not checked; UniProt P01189 147-150, looked up, fragment)”, the “antipyretic potency relative to the 11-13 sequence” value [1] is given as “slightly decreased potency”.
With “ACTH (1-39): melanocortin peptide ACTH (1-39) (SYSMEHFRWGKPVGKKRRPVKVYPNGAEDESAEAFPLEF; Corticotropin; UniProt P01189 138-176, looked up) [reference compound]” the “relative potency in reducing C. albicans viability” value [2, 14] was “did not reduce C. albicans viability” and the “reduction of C. albicans CFU at higher concentrations” value [2] was “likewise ineffective”.
For “ACTH fragment (18-39): ACTH fragment (18-39) (CLIP) [reference compound]”, the “relative potency in reducing C. albicans viability” value [2, 14] was “did not reduce C. albicans viability” and the “reduction of C. albicans CFU at higher concentrations” value [2] was “likewise ineffective”.
For HFRWGKPV [α-MSH (6-13)], the “relative potency in reducing C. albicans viability” value [2, 14] was “most effective”.
In the case of KPV, the RT release [3] is reported as “significantly inhibited”, the “most effective concentration for HIV inhibition (p24 release)” value ([4]; TNF-α-stimulated U1 cells) is reported as 10^−5 M and the p24 release ([4]; U1 cells induced by IL-6, IL-10, PMA, and in crowding condition, KPV 10^−5 M) is reported as “significantly inhibited”. For the same substance, the “killing of C. albicans by human neutrophils” value [5] was “enhanced killing”, the “reduction in the number of filamentous cells (inhibition of germination)” value [6] was 54-58% and the “enhancing effect of urokinase on S. aureus colony formation” value [7] was “significantly inhibited”. For the same substance, the RT release [8] was “significantly inhibited”, the “C. albicans colony forming units (CFU)” value [2] was “greatly reduced” and the “cAMP content of C. albicans” value [9] was “enhanced cAMP content”. The “reduction of both spliced and unspliced HIV-1 RNA” value [10] was “approximately 50%”, the “S. aureus colony formation” value [11] was “inhibited” and the “NF-κB activation (DNA binding)” value ([12]; TNF-α-treated U1 cells) was “significantly reduced”. The “NF-κB activation (DNA binding)” value ([12]; resting U1 cells) was “did not alter”.
In the case of MEHFRWG [α-MSH sequence (4-10)], the “inhibition of C. albicans CFU” value [2, 14] is reported as “approximately 50%”.
For “NH2-Val-Pro-Lys-Ac-Cys-Cys-Ac-Lys-Pro-Val-NH2 (Ac-CKPV-NH2; also: dimer linked through Cys-Cys) [KPV dimer]”, the “effectiveness against microbes compared with α-MSH (11-13)” value ([2]; S. aureus and C. albicans) was “at least as effective as α-MSH (11-13)”, the “C. albicans colony forming units (CFU)” value [2] was “inhibited” and the “S. aureus colony formation” value [11] was “inhibited”.
With “SYSMEHFRWGKPV (listed as Homo sapiens) [α-MSH (1-13)]” the “inhibition of p24 release” value ([4]; TNF-α-stimulated U1 cells, picomolar peptide concentrations that occur in human plasma) was 34-36%, the “most effective concentration for HIV inhibition (p24 release)” value ([4]; TNF-α-stimulated U1 cells) was 10^−5 M and the “killing of C. albicans by human neutrophils” value [5] was “enhanced killing”. For the same substance, the “enhancing effect of urokinase on S. aureus colony formation” value [7] was “significantly inhibited”, the “C. albicans colony forming units (CFU)” value [2] was “greatly reduced” and the “cAMP content of C. albicans” value [9] was “enhanced cAMP content”. For the same substance, the “S. aureus colony formation” value [11] was “inhibited”.
In the case of [Nle^4, D-Phe^7], α-MSH, the “potency in reducing fever relative to parent peptide” value [13] is listed as “approximately ten times more potent than the parent peptide”.
